Experimental data reported in patent publication US9700533B2, “Maternal chelation for embryo, fetal and infant benefit” (priority 2005, dated 2017).
Read-outs that look alike come from different tables or passages of the source.

What was measured:
[1] = Chelation-provoked urine test, urinary cadmium; type: in vivo, human; details: for urinary cadmium: Case 14
Procedure: (§1) The terms “diagnostic provocation” and “chelation-provoked urine tests” and related terms refer to a procedure whereby the patient is administered one of more dosages of chelators, after which the patient's urine is collected for a defined period of time. The collected urine is analyzed for metal content, the metal having been removed from the patient's body by the chelators. The results of this procedure can indicate which metals are present in the patient's body and the approximate levels of the metals, which is subsequently used in designing a course of chelation therapy.
(§2) The metals may be measured with or without prior chelation provocation. The standard values accepted by medical laboratories are measured without chelation provocation. Treatment with chelation medication mobilizes metal stores within in the body to be detected in the urine, thus values obtained post-provocation will be increased.

[2] = Chelation-provoked urine test, urinary tin; type: in vivo, human; details: for urinary tin: Case 14
Procedure: as §1, §2

[3] = Chelation-provoked urine test, urinary nickel; type: in vivo, human
Procedure: as §1, §2

[4] = Chelation-provoked urine test, urinary uranium; type: in vivo, human
Procedure: as §1, §2

[5] = Chelation-provoked urine test, urinary tungsten; type: in vivo, human; details: Case 7, 6 hour urine
Procedure: as §1, §2

[6] = not given; remark: listed apart in the source
[7] = Case 14
Procedure: as §1, §2

[8] = Case 14; remark: listed apart in the source
Procedure: as §1, §2

[9] = Chelation-provoked urine test, urinary lead
Procedure: as §1, §2

[10] = Chelation-provoked urine test, metals revealed (in words)
Procedure: as §1, §2

[11] = Maternal chelation treatment, pregnancy, child and patient outcome; type: in vivo, human
[12] = DMPS provocation October 2003, before treatment
[13] = DMPS series, follow up October 2005 after oral DMSA and essential daily defense
[14] = after series of intravenous DMPS chelation treatments October 2003 to May 2004
[15] = Case 7, one 300-mg capsule DMPS, 6 hour urine
[16] = Case 14, DMPS provocation October 2003, before treatment
[17] = Case 14, DMPS series, follow up October 2005 after oral DMSA and essential daily defense
[18] = Case 14, after series of intravenous DMPS chelation treatments October 2003 to May 2004
[19] = Case 5, DMPS chelation provocation, before treatment
[20] = Case 5, DMPS provocation, previously (before treatment)
[21] = Case 4, after 4 months oral DMSA, 4 x 250 mg three times daily, 3 days per week
[22] = Case 4, four capsules DMSA 250 mg, 6 hour urine, before treatment
[23] = Case 2, oral DMSA 250 mg three times a day, 24 hour urine
[24] = Case 7, one 250-mg capsule DMSA orally, 6 hour urine

With `O=S(=O)(O)CC(S)CS` (stereo not shown) [DMPS, Dimercaptopropanesulfonic Acid] the urinary cadmium [1, 12] was 0.82 (normal <0.64) mcg/g creatinine, the urinary cadmium [1, 13] was 0.17 mcg/g creatinine and the urinary cadmium [1, 14] was 0.16 mcg/g creatinine. The urinary tin [2, 12] was 10.4 (normal <2.04) mcg/g creatinine, the urinary tin [2, 13] was 3.03 mcg/g creatinine and the urinary tin [2, 14] was 0.4 mcg/g creatinine. For the same molecule, the urinary nickel [3, 15] was 132 (normal <9.5), the urinary nickel [3, 16] was 9.3 (normal <9.5) mcg/g creatinine and the urinary nickel [3, 17] was 0.7 mcg/g creatinine. For the same molecule, the urinary nickel [3, 18] was 3.2 mcg/g creatinine, the urinary uranium [4, 15] was 0.034 (normal <0.013) and the urinary uranium [4, 16] was 0.042 (normal <0.026) mcg/g creatinine. For the same molecule, the urinary uranium [4, 17] was 3 mcg/g creatinine, the urinary uranium [4, 18] was 0 mcg/g creatinine and the urinary tungsten ([5]; one 300-mg capsule DMPS) was 7.07 (normal <0.34). The urinary mercury [19] was 38.55 (normal <6.97) mcg/g creatinine, the “urinary mercury, times normal” value [20] was 5 × normal and the urinary mercury [16] was 7.3 (normal <2.14) mcg/g creatinine. The urinary mercury [17] was 4.6 mcg/g creatinine, the urinary mercury [18] was 6 mcg/g creatinine and the urinary antimony [6, 19] was 0.84 (normal <0.14) mcg/g creatinine. The “urinary antimony, times normal” value [6, 20] was 6 × normal, the urinary antimony [6, 16] was 0.48 (normal <0.14) mcg/g creatinine and the urinary antimony [6, 17] was 0.18 mcg/g creatinine. The urinary antimony [6, 18] was 0.05 mcg/g creatinine, the urinary arsenic [7, 12] was 159 (normal <50) mcg/g creatinine and the urinary arsenic [7, 13] was 34 mcg/g creatinine. The urinary arsenic [7, 14] was 20 mcg/g creatinine, the urinary thorium [8, 12] was 0 (normal <0.124) mcg/g creatinine and the urinary thorium [8, 13] was 0 mcg/g creatinine. The urinary thorium [8, 14] was 0.019 mcg/g creatinine, the urinary lead [9, 19] was 6.39 (normal <1.41) mcg/g creatinine and the “urinary lead, times normal” value [9, 20] was 4 × normal. For the same molecule, the urinary lead [9, 15] was 4.6 (normal <1.41), the urinary lead [9, 16] was 7.9 (normal <1.41) mcg/g creatinine and the urinary lead [9, 17] was 2.6 mcg/g creatinine. The urinary lead [9, 18] was 0.9 mcg/g creatinine, the “metals revealed on provocation” value ([10]; Case 10, DMPS 300 mg PO x1, 6 hour urine) was “elevated levels of lead, mercury, aluminum, antimony, cadmium, nickel, tin, tungsten and uranium” and the “metals revealed on provocation” value ([10]; Case 12, DMPS 300 mg PO x2, 6 hour urine) was “marked elevation of nickel as well as abnormally elevation of arsenic, cadmium and lead”.
With `O=C(O)C(S)C(S)C(=O)O` (stereo not shown) [DMSA, Dimercaptosuccinic Acid] the “urinary cadmium, follow up provocation” value [1, 21] was 0.18 mcg/g creatinine, the provoked urinary cadmium [1, 22] was 1.79 mcg/g creatinine and the “urinary tin after provocation” value [2, 23] was 9 mcg/g creatinine. For the same molecule, the “urinary tin, follow up provocation” value [2, 21] was 0.9 mcg/g creatinine, the provoked urinary tin [2, 22] was 12.5 mcg/g creatinine and the urinary nickel [3, 24] was 77 (normal <9.5) mcg/g creatinine. The urinary uranium [4, 24] was 0.05 (normal <0.031) mcg/g creatinine, the “urinary uranium, times the reference range” value ([4]; Case 9, DMSA 1000 mg PO x1, 6 hour urine) was over 100 × the reference range and the urinary tungsten ([5]; one 250-mg capsule DMSA orally) was 6.41 (normal <0.34) mcg/g creatinine. For the same molecule, the “chronic fatigue during treatment” value ([11]; Case 4, during 4 months oral DMSA) was “chronic fatigue resolved”, the chronic fatigue ([11]; Case 5, calcium EDTA + vitamin C IV together with oral DMSA) was “chronic fatigue improved” and the “neurological development of the baby” value ([11]; Case 5, parent treated preconceptionally with calcium EDTA + vitamin C IV and oral DMSA) was “above average neurological development”. For the same molecule, the “follow-up chelation-provoked urine, total body lead” value ([9]; Case 1, after 15 cycles DMSA three capsules three times a day, three days a week) was “a decrease in total body lead”, the “urinary lead concentration on provocation” value ([9]; Case 1, oral DMSA 250 mg three times a day, 24 hour urine) was 20 mcg/g creatinine and the “urinary lead concentration after provocation” value [9, 23] was 14 mcg/g creatinine. For the same molecule, the “urinary lead, follow up provocation” value [9, 21] was 1.34 mcg/g creatinine, the provoked urinary lead [9, 22] was 13.6 mcg/g creatinine and the urinary lead [9, 24] was 4.79 (normal <1.41) mcg/g creatinine. For the same molecule, the “metals revealed by chelation-provoked urine test” value ([10]; Case 6, oral DMSA challenge three days after delivery) was “presence of both lead and mercury”, the “metals excreted on provocation” value ([10]; Case 9, postpartum, DMSA 1000 mg PO x1, 6 hour urine) was “excretion of a number of metals, including lead, mercury, cadmium and uranium” and the “metals revealed on challenge” value ([10]; Case 10, DMSA 250 mg PO x1, 6 hour urine) was “elevated amounts of lead, aluminum, antimony, barium, nickel, gallium, tin, tungsten, and uranium”. The “metals revealed on provocation” value ([10]; Case 11, 1000 mg DMSA orally x1, 6 hour urine) was “elevated levels of lead, mercury, tin, uranium and tungsten”.
